Source: the supplement of paper PMC11061612

Assays:
Doxorubicin = compound: COc1cccc2c1C(=O)c1c(O)c3c(c(O)c1C2=O)C[C@@](O)(C(=O)CO)C[C@@H]3O[C@H]1C[C@H](N)[C@H](O)[C@H](C)O1 [Doxorubicin]; settings: max 1 µM
In short: (§1)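 Cancer cell lines were dosed for 72 hours (final DMSO typically 0.2%) after 24 hours at 37°C and 5% CO2 in 1536-well plates containing 7.5 μl DMEM/F12 or RPMI with 10% FBS. Viability came from CellTiter-Glo 2.0 luminescence, scaled between blank-well and DMSO-well means, and dose responses were fitted to a two-parameter logistic curve with a non-linear mixed effects model. The single-agent IC50 was obtained from this fit.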

Paclitaxel = compound: CC(=O)O[C@H]1C(=O)[C@@]2(C)[C@H]([C@H](OC(=O)c3ccccc3)[C@]3(O)C[C@H](OC(=O)[C@H](O)[C@@H](NC(=O)c4ccccc4)c4ccccc4)C(C)=C1C3(C)C)[C@]1(OC(C)=O)CO[C@@H]1C[C@@H]2O [Paclitaxel]; settings: max 3 µM
In short: as §1

Savolitinib = compound: C[C@@H](c1ccc2nccn2c1)n1nnc2ncc(-c3cnn(C)c3)nc21 [Savolitinib]; settings: max 1 µM
In short: as §1

AZD0156 = compound: CN(C)CCCOc1ccc(-c2ccc3ncc4c(c3c2)n(C2CCOCC2)c(=O)n4C)cn1 [AZD0156]; settings: max 3 µM
In short: as §1

Alisertib = compound: COc1cc(Nc2ncc3c(n2)-c2ccc(Cl)cc2C(c2c(F)cccc2OC)=NC3)ccc1C(=O)O [Alisertib]; settings: max 10 µM
In short: as §1

AZD2811 = compound: CCN(CCO)CCCOc1ccc2c(Nc3cc(CC(=O)Nc4cccc(F)c4)[nH]n3)ncnc2c1 [AZD2811]; settings: max 1 µM
In short: as §1

Taselisib = compound: Cc1nc(-c2cn3c(n2)-c2ccc(-c4cnn(C(C)(C)C(N)=O)c4)cc2OCC3)n(C(C)C)n1 [Taselisib]; settings: max 10 µM
In short: as §1

SN-38 = compound: CCc1c2c(nc3ccc(O)cc13)-c1cc3c(c(=O)n1C2)COC(=O)[C@]3(O)CC [SN-38]; settings: max 0.3 µM
In short: as §1

Carboplatin = compound: C1CC(C1)(C(=O)[O-])C(=O)[O-].N.N.[Pt+2] [Carboplatin]; settings: max 10 µM
In short: as §1

Etoposide = compound: COc1cc([C@@H]2c3cc4c(cc3[C@@H](O[C@@H]3O[C@@H]5CO[C@@H](C)O[C@H]5[C@H](O)[C@H]3O)[C@H]3COC(=O)[C@H]23)OCO4)cc(OC)c1O [Etoposide]; settings: max 10 µM
In short: as §1

AZD6738 = compound: C[C@@H]1COCCN1C2=NC(=NC(=C2)C3(CC3)[S@](=N)(=O)C)C4=C5C=CNC5=NC=C4 [AZD6738]; settings: max 10 µM
In short: as §1

5-Fluorouracil = compound: O=c1[nH]cc(F)c(=O)[nH]1 [5-Fluorouracil]; settings: max 20 µM
In short: as §1

Venetoclax = compound: CC1(C)CCC(CN2CCN(c3ccc(C(=O)NS(=O)(=O)c4ccc(NCC5CCOCC5)c([N+](=O)[O-])c4)c(Oc4cnc5[nH]ccc5c4)c3)CC2)=C(c2ccc(Cl)cc2)C1 [Venetoclax]; settings: max 1 µM
In short: as §1

Gefitinib = compound: COc1cc2ncnc(Nc3ccc(F)c(Cl)c3)c2cc1OCCCN1CCOCC1 [Gefitinib]; settings: max 10 µM
In short: as §1

AZD5363 = compound: C1CN(CCC1(C(=O)N[C@@H](CCO)C2=CC=C(C=C2)Cl)N)C3=NC=NC4=C3C=CN4 [AZD5363]; settings: max 10 µM
In short: as §1

AZD1390 = compound: CC(C)n1c(=O)n(C)c2cnc3cc(F)c(-c4ccc(OCCCN5CCCCC5)nc4)cc3c21 [AZD1390]; settings: max 0.3 µM
In short: as §1

Prexasertib = compound: COc1cccc(OCCCN)c1-c1cc(Nc2cnc(C#N)cn2)n[nH]1 [Prexasertib]; settings: max 1 µM
In short: as §1

AZD4320 = compound: CN(CC[C@H](CSC1=CC=CC=C1)NC2=C(C=C(C=C2)S(=O)(=O)NC(=O)C3=CC=C(C=C3)N4CCC(CC4)[C@H](C5=CC=CC=C5C6=CC=C(C=C6)Cl)O)S(=O)(=O)C(F)(F)F)CCO [AZD4320]; settings: max 1 µM
In short: as §1

AZD1775 = compound: C=CCn1c(=O)c2cnc(Nc3ccc(N4CCN(C)CC4)cc3)nc2n1-c1cccc(C(C)(C)O)n1 [AZD1775]; settings: max 3 µM
In short: as §1

SRA737 = compound: N#Cc1cnc(Nc2cc(NC[C@H]3CNCCO3)c(C(F)(F)F)cn2)cn1 [SRA737]; settings: max 10 µM
In short: as §1

MK-2206 = compound: NC1(c2ccc(-c3nc4ccn5c(=O)[nH]nc5c4cc3-c3ccccc3)cc2)CCC1 [MK-2206]; settings: max 10 µM
In short: as §1

Lapatinib = compound: CS(=O)(=O)CCNCc1ccc(-c2ccc3ncnc(Nc4ccc(OCc5cccc(F)c5)c(Cl)c4)c3c2)o1 [Lapatinib]; settings: max 10 µM
In short: as §1

AZD5153 = compound: COc1nnc2ccc(N3CCC(c4ccc(OCCN5CCN(C)C(=O)[C@H]5C)cc4)CC3)nn12 [AZD5153]; settings: max 1 µM
In short: as §1

AZD7648 = compound: Cc1cc2ncnn2cc1Nc1ncc2c(n1)n(C1CCOCC1)c(=O)n2C [AZD7648]; settings: max 10 µM
In short: as §1

AZD5991 = compound: Cc1c2c(nn1C)CSCc1cc(n(C)n1)CSc1cc(c3ccccc3c1)OCCCc1c(C(=O)O)n(C)c3c-2c(Cl)ccc13 [AZD5991]; settings: max 1 µM
In short: as §1

Trametinib = compound: CC(=O)Nc1cccc(-n2c(=O)n(C3CC3)c(=O)c3c(Nc4ccc(I)cc4F)n(C)c(=O)c(C)c32)c1 [Trametinib]; settings: max 1 µM
In short: as §1

Dasatinib = compound: CC1=C(C(=CC=C1)Cl)NC(=O)C2=CN=C(S2)NC3=CC(=NC(=N3)C)N4CCN(CC4)CCO [Dasatinib]; settings: max 2 µM
In short: as §1

[1] = compound: O=C(Nc1ccc2[nH]nc(-c3ccncc3)c2c1)[C@@H]1CCN(CC(=O)N2CCN(c3ccc(-c4ncccn4)cc3)CC2)C1; settings: max 5 µM
In short: as §1

Selumetinib = compound: Cn1cnc2c(F)c(Nc3ccc(Br)cc3Cl)c(C(=O)NOCCO)cc21 [Selumetinib]; settings: max 10 µM
In short: as §1

AZD8186 = compound: C[C@@H](Nc1cc(F)cc(F)c1)c1cc(C(=O)N(C)C)cc2c(=O)cc(N3CCOCC3)oc12 [AZD8186]; settings: max 10 µM
In short: as §1

Crizotinib = compound: C[C@@H](Oc1cc(-c2cnn(C3CCNCC3)c2)cnc1N)c1c(Cl)ccc(F)c1Cl [Crizotinib]; settings: max 10 µM
In short: as §1

Palbociclib = compound: CC(=O)c1c(C)c2cnc(Nc3ccc(N4CCNCC4)cn3)nc2n(C2CCCC2)c1=O [Palbociclib]; settings: max 10 µM
In short: as §1

Gemcitabine = compound: Nc1ccn([C@@H]2O[C@H](CO)[C@@H](O)C2(F)F)c(=O)n1 [Gemcitabine]; settings: max 0.3 µM
In short: as §1

SG3199 = compound: CC1=CN2[C@@H](C1)C=NC3=CC(=C(C=C3C2=O)OC)OCCCCCOC4=C(C=C5C(=C4)N=C[C@@H]6CC(=CN6C5=O)C)OC [SG3199]; settings: max 0.001 µM
In short: as §1

Olaparib = compound: O=C(c1cc(Cc2n[nH]c(=O)c3ccccc23)ccc1F)N1CCN(C(=O)C2CC2)CC1 [Olaparib]; settings: max 10 µM
In short: as §1

Cell Line	IC50, cell viability 72 h (Doxorubicin)	IC50, cell viability 72 h (Paclitaxel)	IC50, cell viability 72 h (Savolitinib)	IC50, cell viability 72 h (AZD0156)	IC50, cell viability 72 h (Alisertib)	IC50, cell viability 72 h (AZD2811)	IC50, cell viability 72 h (Taselisib)	IC50, cell viability 72 h (SN-38)	IC50, cell viability 72 h (Carboplatin)	IC50, cell viability 72 h (Etoposide)	IC50, cell viability 72 h (AZD6738)	IC50, cell viability 72 h (5-Fluorouracil)	IC50, cell viability 72 h (Venetoclax)	IC50, cell viability 72 h (Gefitinib)	IC50, cell viability 72 h (AZD5363)	IC50, cell viability 72 h (AZD1390)	IC50, cell viability 72 h (Prexasertib)	IC50, cell viability 72 h (AZD4320)	IC50, cell viability 72 h (AZD1775)	IC50, cell viability 72 h (SRA737)	IC50, cell viability 72 h (MK-2206)	IC50, cell viability 72 h (Lapatinib)	IC50, cell viability 72 h (AZD5153)	IC50, cell viability 72 h (AZD7648)	IC50, cell viability 72 h (AZD5991)	IC50, cell viability 72 h (Trametinib)	IC50, cell viability 72 h (Dasatinib)	IC50, cell viability 72 h [1]	IC50, cell viability 72 h (Selumetinib)	IC50, cell viability 72 h (AZD8186)	IC50, cell viability 72 h (Crizotinib)	IC50, cell viability 72 h (Palbociclib)	IC50, cell viability 72 h (Gemcitabine)	IC50, cell viability 72 h (SG3199)	IC50, cell viability 72 h (Olaparib)
ST486 (Burkitt's Lymphoma)	773 nM	8.5 nM	> 1000 nM	> 3000 nM	40 nM	31.9 nM	> 10000 nM	80.9 nM	> 10000 nM	1180 nM	2000 nM	> 20000 nM	> 1000 nM	> 10000 nM	> 10000 nM	> 300 nM	7.33 nM	134 nM	320 nM	968 nM	> 10000 nM	> 10000 nM	64.9 nM	> 10000 nM	71 nM	> 1000 nM	220 nM	4790 nM	8880 nM	> 10000 nM	739 nM	> 10000 nM	15.9 nM	> 1 nM	> 10000 nM
T-T (Esophageal Squamous Cell Carcinoma)	> 1000 nM	29.3 nM	> 1000 nM	> 3000 nM	> 10000 nM	> 1000 nM	2980 nM	115 nM	> 10000 nM	> 10000 nM	> 10000 nM	> 20000 nM	> 1000 nM	> 10000 nM	> 10000 nM	> 300 nM	350 nM	> 1000 nM	1770 nM	> 10000 nM	> 10000 nM	> 10000 nM	> 1000 nM	> 10000 nM	341 nM	> 1000 nM	> 2000 nM	> 5000 nM	> 10000 nM	> 10000 nM	> 10000 nM	> 10000 nM	> 300 nM	> 1 nM	> 10000 nM
VMRC-RCZ (Kidney Carcinoma)	> 1000 nM	> 3000 nM	> 1000 nM	> 3000 nM	> 10000 nM	> 1000 nM	> 10000 nM	> 300 nM	> 10000 nM	> 10000 nM	> 10000 nM	> 20000 nM	> 1000 nM	> 10000 nM	> 10000 nM	> 300 nM	> 1000 nM	> 1000 nM	> 3000 nM	> 10000 nM	> 10000 nM	> 10000 nM	> 1000 nM	> 10000 nM	> 1000 nM	> 1000 nM	> 2000 nM	> 5000 nM	> 10000 nM	> 10000 nM	> 10000 nM	> 10000 nM	> 300 nM	> 1 nM	> 10000 nM
